Reference: PubChem BioAssay AID2393 (NMMLSC, 2010)
Active and inactive are the calls of the source.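 The calls were made as follows: active = none, because compounds meeting the potency rule were filed inconclusive for hitting several proteins; inconclusive = EC50 under 20 µM with over 15% binding change; inactive = the rest.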

Experiments:
Test in all cases: small GTPase panel, fluorescent GTP binding blockade – biochemical, Mg buffer, constant GTP, RhoA, Rac1, Cdc42, mechanism study for Ras-family GTPase inhibitor project, profiling panel (AID 2393);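 as to EC50: EC50 marks half change in GTP binding and may reflect gain or loss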
Details in all cases: GST-GTPase beads, BODIPY-GTP binding, flow cytometry; for GTP binding remaining (% of DMSO): at 100 µM (top of the series)
[1] = molecular target: Transforming protein RhoA (Homo sapiens) (UniProt P61586)
[2] = molecular target: Ras-related C3 botulinum toxin substrate 1 (Homo sapiens) (UniProt P63000)
[3] = molecular target: Cell division control protein 42 homolog (Homo sapiens) (UniProt P60953)

Structure (SMILES)	GTP binding remaining (% of DMSO) ([1]; RhoACT)	GTP binding remaining (% of DMSO) ([1]; RhoWT)	GTP binding remaining (% of DMSO) ([2]; Rac1ACT)	GTP binding remaining (% of DMSO) ([2]; Rac1WT)	EC50 ([3]; Cdc42ACT)	EC50 ([3]; Cdc42WT)	GTP binding remaining (% of DMSO) ([3]; Cdc42ACT)	GTP binding remaining (% of DMSO) ([3]; Cdc42WT)	EC50 ([2]; Rac1ACT)	EC50 ([2]; Rac1WT)	EC50 ([1]; RhoWT)	EC50 ([1]; RhoACT)
COc1ccc(C2CC(c3ccc(C)cc3)=NN2c2ccc(S(N)(=O)=O)cc2)cc1 (stereo not drawn)	inactive	inactive	inactive	inactive	inactive	inactive	–	–	–	–	–	–
COc1ccc(C2CC(c3ccc(Br)cc3)=NN2c2ccc(S(N)(=O)=O)cc2)cc1 (stereo not drawn)	inactive	inactive	inactive	inactive	–	–	inactive	inactive	–	–	–	–
COc1ccc(C2=NN(c3ccc(S(N)(=O)=O)cc3)C(c3ccc(OC)cc3)C2)cc1 (stereo not drawn)	inactive	inactive	inactive	inactive	inactive	–	–	inactive	–	–	–	–
Cc1cccc(C2CC(c3ccccc3)=NN2c2ccc(S(N)(=O)=O)cc2)c1 (stereo not drawn)	inactive	inactive	inactive	inactive	8.35 µM	7.7 µM	–	–	–	–	–	–
COc1ccc(C2CC(C)=NN2c2ccc(S(N)(=O)=O)cc2)cc1 (stereo not drawn)	inactive	inactive	–	inactive	–	–	inactive	inactive	inactive	–	–	–
COc1ccc(C2CC(c3cccs3)=NN2c2ccc(S(N)(=O)=O)cc2)cc1 (stereo not drawn)	inactive	inactive	inactive	inactive	4.28 µM	4.08 µM	–	–	–	–	–	–
NS(=O)(=O)c1ccc(N2N=C(c3ccccc3)CC2c2ccc(Cl)cc2)cc1 (stereo not drawn)	inactive	inactive	inactive	–	4.22 µM	3.94 µM	–	–	–	inactive	–	–
COc1ccc(-c2cc(CCC(=O)N3CCN(c4cc(C)ccc4C)CC3)on2)cc1	inactive	–	inactive	–	2.78 µM	0.97 µM	–	–	–	2.76 µM	1.3 µM	–
COc1ccc(C2CC(c3ccc(C(F)(F)F)cc3)=NN2c2ccc(S(N)(=O)=O)cc2)cc1 (stereo not drawn)	inactive	inactive	inactive	inactive	–	–	inactive	inactive	–	–	–	–
COc1ccc(C2CC(c3ccc(N(C)C)cc3)=NN2c2ccc(S(N)(=O)=O)cc2)cc1 (stereo not drawn)	inactive	inactive	inactive	inactive	–	–	inactive	inactive	–	–	–	–
Cc1ccc(C2CC(c3ccccc3)=NN2c2ccc(S(N)(=O)=O)cc2)cc1 (stereo not drawn)	inactive	inactive	inactive	–	5.07 µM	4.36 µM	–	–	–	inactive	–	–
COc1ccc(-c2ccc(CCC(=O)N3CCN(c4cc(C)ccc4C)CC3)s2)cc1	inactive	inactive	inactive	inactive	–	–	inactive	inactive	–	–	–	–
COc1ccc(C2CC(c3ccccc3)=NN2c2ccc(S(N)(=O)=O)cc2)cc1 (stereo not drawn)	inactive	inactive	–	inactive	2.73 µM	2.5 µM	–	–	inactive	–	–	–
COc1ccc(C2CC(c3cccc(OC)c3)=NN2c2ccc(S(N)(=O)=O)cc2)cc1 (stereo not drawn)	inactive	inactive	inactive	inactive	inactive	1.9 µM	–	–	–	–	–	–
COc1cccc(C2CC(c3ccccc3)=NN2c2ccc(S(N)(=O)=O)cc2)c1 (stereo not drawn)	–	inactive	inactive	inactive	4.65 µM	4.69 µM	–	–	–	–	–	inactive
COc1ccc(C2CC(c3ccccc3C)=NN2c2ccc(S(N)(=O)=O)cc2)cc1 (stereo not drawn)	inactive	inactive	inactive	inactive	–	–	inactive	inactive	–	–	–	–
COc1ccc(-c2noc(CCC(=O)N3CCC(c4cc(C)ccc4C)CC3)n2)cc1	inactive	–	inactive	–	–	–	inactive	inactive	–	11.9 µM	inactive	–
NS(=O)(=O)c1ccc(N2N=C(c3ccccc3)CC2c2ccc(Br)cc2)cc1 (stereo not drawn)	inactive	inactive	inactive	–	1.65 µM	1.49 µM	–	–	–	inactive	–	–
COc1ccc(C2CC(c3ccccc3OC)=NN2c2ccc(S(N)(=O)=O)cc2)cc1 (stereo not drawn)	inactive	inactive	inactive	inactive	5.28 µM	5.66 µM	–	–	–	–	–	–
COc1ccc(-c2noc(CCC(=O)N3CCN(c4cc(C)ccc4C)CC3)n2)cc1	–	–	inactive	–	inactive	inactive	–	–	–	2.37 µM	inactive	inactive
NS(=O)(=O)c1ccc(N2N=C(c3ccccc3)CC2c2cccc(Cl)c2)cc1 (stereo not drawn)	inactive	inactive	–	–	5.08 µM	3.95 µM	–	–	inactive	inactive	–	–
COc1ccc(-c2ccc(CCC(=O)N3CCN(c4cc(C)ccc4C)CC3)[nH]2)cc1	inactive	inactive	inactive	inactive	–	–	inactive	inactive	–	–	–	–
COc1ccc(-c2cc(CCC(=O)N3CCN(c4cc(C)ccc4C)CC3)[nH]n2)cc1	inactive	inactive	inactive	inactive	–	–	inactive	inactive	–	–	–	–
